From US20220132852A1, “PESTICIDALLY ACTIVE HETEROCYCLIC DERIVATIVES WITH SULFUR CONTAINING SUBSTITUENTS” (SYNGENTA CROP PROTECTION AG, priority 2019, published 2022)

Columns and labels:
Type in all cases: in vivo
[1] = tested on: Frankliniella occidentalis (Western Flower Thrips); test: Example B8: Activity against Frankliniella occidentalis (western flower thrips); settings: foliar, 168 h, application rate 200 ppm, sprayed sunflower leaf discs, mixed ages, 7 days after infestation
Protocol: Example B8: Activity Against Frankliniella occidentalis (Western Flower Thrips)
Sunflower leaf discs were placed on agar in 24-well microtiter plates and sprayed with aqueous test solutions prepared from […] stock solutions. After drying the leaf discs were infested with a Frankliniella population of mixed ages. The samples were assessed for mortality 7 days after infestation.

[2] = tested on: Spodoptera littoralis (Egyptian Cotton Leaf Worm); test: Example B6: Activity against Spodoptera littoralis (Egyptian cotton leaf worm); settings: foliar, 72 h, application rate 200 ppm, L1 larvae on sprayed cotton leaf discs, 3 days after infestation, read-out: control (mortality, anti-feeding effect or growth inhibition)
Outline: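 Cotton leaf discs on agar were sprayed with aqueous test solutions prepared from 10'000 ppm DMSO stocks. After drying, each disc was infested with five L1 larvae. Mortality, anti-feeding and growth inhibition were scored against untreated samples 3 days after infestation.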

[3] = tested on: Tetranychus urticae (Two-Spotted Spider Mite); test: Example B9: Activity against Tetranychus urticae (two-spotted spider mite); settings: foliar, 192 h, read-out: mortality on mixed population (mobile stages)
Protocol: Example B9: Activity Against Tetranychus urticae (Two-Spotted Spider Mite)
Bean leaf discs on agar in 24-well microtiter plates were sprayed with aqueous test solutions prepared from 10′000 ppm DMSO stock solutions. After drying the leaf discs were infested with a mite population of mixed ages. The samples were assessed for mortality on mixed population (mobile stages) 8 days after infestation.

[4] = tested on: Diabrotica balteata (Corn Root Worm); test: Example B1: Activity against Diabrotica balteata (corn root worm), sprayed maize sprouts; settings: 96 h, application rate 200 ppm, L2 larvae on sprayed maize sprouts, 4 days after infestation, read-out: effect in at least one of the two categories (mortality or growth inhibition)
Protocol: Example B1: Activity Against Diabrotica balteata (Corn Root Worm)
Maize sprouts placed onto an agar layer in 24-well microtiter plates were treated with aqueous test solutions prepared from 10′000 ppm DMSO stock solutions by spraying. After drying, the plates were infested with L2 larvae (6 to 10 per well). The samples were assessed for mortality and growth inhibition in comparison to untreated samples 4 days after infestation.

[5] = tested on: Plutella xylostella (Diamond Back Moth); test: Example B3: Activity against Plutella xylostella (diamond back moth), artificial diet; settings: 192 h, application rate 200 ppm, eggs on artificial diet, 8 days after infestation, read-out: effect in at least one of the two categories (mortality or growth inhibition)
[6] = tested on: Myzus persicae (Green Peach Aphid); test: whole plant or invertebrate; settings: foliar, 144 h, application rate 200 ppm, sprayed sunflower leaf discs, mixed ages, 6 days after infestation
Protocol: Example B4: Activity Against Myzus persicae (Green Peach Aphid) Feeding/Contact Activity
Sunflower leaf discs were placed onto agar in a 24-well microtiter plate and sprayed with aqueous test solutions prepared from 10′000 ppm DMSO stock solutions. After drying, the leaf discs were infested with an aphid population of mixed ages. The samples were assessed for mortality 6 days after infestation.

[7] = tested on: Euschistus heros (Neotropical Brown Stink Bug); test: Example B2: Activity against Euschistus heros (neotropical brown stink bug), sprayed soybean leaves; settings: 120 h, application rate 200 ppm, N2 nymphs on sprayed soybean leaves, 5 days after infestation, read-out: effect in at least one of the two categories (mortality or growth inhibition)
Protocol: Example B2: Activity Against Euschistus heros (Neotropical Brown Stink Bug)
Soybean leaves on agar in 24-well microtiter plates were sprayed with aqueous test solutions prepared from 10′000 ppm DMSO stock solutions. After drying the leaves were infested with N2 nymphs. The samples were assessed for mortality and growth inhibition in comparison to untreated samples 5 days after infestation.

CCS(=O)(=O)c1ccc(C2CC2)nc1-c1cc2cnn(CC(F)(F)C(F)(F)F)c2cn1 [Compound P26, 5-(6-cyclopropyl-3-ethylsulfonyl-2-pyridyl)-1-(2,2,3,3,3,- pentafluoropropyl) pyrazolo[3,4-c]pyridine]
≥ 80%: mortality at 200 ppm [1] | percent control (mortality, anti-feedant effect or growth inhibition) at 200 ppm [2] | mortality at 200 ppm [3] | percent effect (mortality or growth inhibition) at 200 ppm [4] | percent effect (mortality or growth inhibition) at 200 ppm [5] | mortality at 200 ppm [6] | percent effect (mortality or growth inhibition) at 200 ppm [7]
